From the CheMixHub drug solubility set

Experiment: xn = mol fraction of the nth substance listed, in the solute-free solvent

CCCCN1CCCCC1C(=O)Nc1c(C)cccc1C.Cl.O (configuration not stated) + CO + O
solubility (g/100 g solution)
Details | 293.15 K | 298.15 K | 303.15 K | 308.15 K | 313.15 K | 318.15 K | 323.15 K | 328.15 K | 333.15 K
x2 = 0.1 | 2.92 | 3.74 | 5.36 | 6.77 | 8.14 | 9.76 | 11.3 | 13.1 | 14.9
x2 = 0.2 | 3.04 | 4.11 | 5.31 | 7.06 | 9.3 | 11.4 | 14.1 | 15.8 | 19.5
x2 = 0.3 | 3.57 | 4.29 | 5.13 | 7.32 | 10.9 | 14.7 | 19.7 | 25.1 | 30.3
x2 = 0.4 | 3.64 | 4.18 | 5.89 | 7.92 | 11.9 | 17.4 | 22.3 | 28 | 33.2
x2 = 0.5 | 4.08 | 4.96 | 6.91 | 9.37 | 13.3 | 18.7 | 23.4 | 28.9 | 35.2
x2 = 0.6 | 5.88 | 6.91 | 8.26 | 10.9 | 14.8 | 19.1 | 23.4 | 29.8 | 35.8
x2 = 0.7 | 7.34 | 8.09 | 9.74 | 12.7 | 16.6 | 19.9 | 23.5 | 30.3 | 36.2
x2 = 0.8 | 8.13 | 9.32 | 12 | 14.3 | 17.3 | 20.6 | 24.5 | 30.2 | –
x2 = 0.9 | 8.65 | 10.1 | 13 | 16 | 18.9 | 21.6 | 25.4 | 30.3 | –

O=C(CC(=O)c1ccccc1)c1ccccc1 + CO + O
solubility (g/100 g solution)
Details | 278.15 K | 283.15 K | 288.15 K | 293.15 K | 298.15 K | 303.15 K | 308.15 K | 313.15 K | 318.15 K
x2 = 0.2 | 0.0215 | 0.0248 | 0.0305 | 0.0358 | 0.0488 | 0.0621 | 0.0667 | 0.0775 | 0.0881
x2 = 0.4 | 0.0257 | 0.0323 | 0.039 | 0.0541 | 0.0826 | 0.13 | 0.162 | 0.236 | 0.322
x2 = 0.6 | 0.165 | 0.351 | 0.562 | 0.643 | 0.783 | 0.822 | 0.987 | 1.02 | 1.05
x2 = 0.8 | 0.491 | 0.788 | 1.01 | 1.11 | 1.35 | 1.7 | 1.98 | 2.52 | 2.72

O=[N+]([O-])c1cc[nH]n1 + CO + O
solubility (g/100 g solution)
Details | 283.15 K | 288.15 K | 293.15 K | 298.15 K | 303.15 K | 308.15 K | 313.15 K | 318.15 K | 323.15 K
x2 = 0.05881 | 0.466 | 0.609 | 0.793 | 1.01 | 1.33 | 1.69 | 2.27 | 2.94 | 3.85
x2 = 0.1233 | 0.564 | 0.712 | 0.875 | 1.08 | 1.38 | 1.73 | 2.29 | 2.92 | 3.79
x2 = 0.1942 | 0.925 | 1.17 | 1.41 | 1.73 | 2.13 | 2.68 | 3.46 | 4.36 | 5.66
x2 = 0.2727 | 1.15 | 1.42 | 1.77 | 2.15 | 2.73 | 3.42 | 4.48 | 5.7 | 7.33
x2 = 0.3599 | 1.39 | 1.69 | 2.12 | 2.57 | 3.22 | 4.01 | 5 | 6.42 | 8.34
x2 = 0.4576 | 1.45 | 1.83 | 2.28 | 2.77 | 3.46 | 4.3 | 5.39 | 6.94 | 8.92
x2 = 0.5675 | 1.51 | 1.85 | 2.27 | 2.8 | 3.45 | 4.33 | 5.46 | 6.85 | 8.68
x2 = 0.6923 | 1.5 | 1.84 | 2.25 | 2.74 | 3.41 | 4.19 | 5.28 | 6.7 | 8.39
x2 = 0.835 | 1.44 | 1.82 | 2.25 | 2.79 | 3.66 | 4.99 | 6.1 | 7.64 | 9.23

O=c1[nH]cc(F)c(=O)[nH]1 + O + C1CCOC1
solubility (g/100 g solution)
Details | 283.15 K | 288.15 K | 293.15 K | 298.15 K | 303.15 K | 308.15 K | 313.15 K | 318.15 K | 323.15 K
x2 = 0.5001 | 0.119 | 0.145 | 0.171 | 0.198 | 0.236 | 0.281 | 0.337 | 0.424 | 0.513
x2 = 0.7273 | 0.219 | 0.264 | 0.307 | 0.36 | 0.423 | 0.498 | 0.61 | 0.721 | 0.868
x2 = 0.8572 | 0.382 | 0.44 | 0.504 | 0.585 | 0.675 | 0.811 | 0.97 | 1.08 | 1.3
x2 = 0.9412 | 0.615 | 0.702 | 0.795 | 0.91 | 1.05 | 1.22 | 1.45 | 1.74 | 1.93
